Data set [1] is described as follows: Ferric reducing antioxidant power (FRAP) assay. The arrangement: key to FRAP TEAC: trolox equivalents (TEAC), relative to trolox. Conditions: for FRAP TEAC: 30 µM, relative to trolox. The procedure:
A ferric reducing antioxidant power (FRAP) kit assay purchased from Sigma-Aldrich (Madrid, Spain) was employed for the experiments. The antioxidant solutions, FRAP assay buffer solution, FeCl3 solution, and FRAP probe solution were kept in ice during the preparation of the plate. A calibration standard curve was prepared by using the 2 mM ferrous standard solution provided in the FRAP kit assay. Appropriate aliquots of this solution were taken and diluted up to a 200 μL final volume with FRAP buffer. The final ferrous concentrations measured in the well were: 0, 20, 40, 60, 80, and 100 μM. Each concentration value was prepared and measured by triplicate. Stock solutions of compounds 3, as well as reference compounds trolox and ferulic acid, were freshly prepared in 95% ethanol at […]. Aliquots of 10 μL of compounds 3 and the reference compounds were mixed with 19 μL FeCl3 solution and 19 μL FRAP probe solution, and then completed to a final volume of 200 μL with FRAP assay buffer solution. The final concentration of antioxidants and references was 30 μM. Compounds 3, reference compounds, as well as the corresponding blank solutions (one for each compound to be assayed, avoiding the chromogenic FRAP probe), and positive control were thoroughly mixed in vortex for 1–2 min with the reaction chromogenic media, and then were incubated under darkness at 37 °C in the dry bath, and using the device for support well-plates. Each compound to be assayed and the reference antioxidant compounds were prepared and measured by triplicate. The absorbance values were measured at 594 nm after 5 min of reaction and, to assure complete reaction, the absorbance values after 60 min of incubation at 37 °C in the dry bath were also measured. The absorbance values of the sample antioxidant compounds were corrected by subtracting the corresponding absorbance values of the blanks, and then they were introduced in the calibration curve and the ferrous equivalents were determined. The reference antioxidants employed for this assay were trolox and ferulic acid, which were obtained from Sigma-Aldrich (Madrid, Spain). Ultrapure water was obtained from a Milli-Q Direct 8 system (Millipore, Molsheim, France).
In order to achieve a broader insight into the antioxidant profile of our compounds, we also examined them using a single electron transfer (SET)-based method, namely the ferric reducing antioxidant power (FRAP) assay, which measures the ability of an antioxidant to reduce the ferric ion in the TPTZ (2,4,6-tri(2-pyridyl)-1,3,5-triazine)-Fe(III) complex.

The subject of data set [2] is neuroblastoma SHSY5Y cells. As to the kind of experiment: Cytotoxicity in SHSY5Y cells (MTT reduction). The format is cell-based. As to conditions: for LD50: MTT reduction. The procedure: SH-SY5Y cells (ECACC 94030304, Porton Down, Salisbury, UK), from passages between 4 and 16 after defreezing, were maintained in a MEM/F12 containing […] nonessential amino acids and supplemented with 10% fetal bovine serum (FBS), glutamine 1 mM, 50 units/mL of penicillin, and 50 μg/mL of streptomycin (GIBCO, Madrid, Spain). Cells were harvested in a […] flask and incubated at 37 °C with wet atmosphere and 5% CO2, carrying out passages 1:4 twice a week. For neuroprotection experiments, cells were seeded in 96-well plates at a density of 60,000 cells/well. For the toxicity experiments, cells were treated with the compounds under assay before reaching confluence, in MEM/F12 with 1% FBS.
Due to their presumed electrophilicity, the neurotoxicity of our compounds was investigated by investigating their influence on cell viability in the neuroblastoma SHSY5Y cell line prior to other studies in cell cultures. […] It is relevant to note that, despite their reputation for toxicity, interest in covalent drugs has undergone a renaissance, and about 30% of the recently marketed drugs belong to this class.
For orientation: Tetrazolium dyes change colour on reduction, which living cells bring about.

Data set [3] addresses AChE (Electrophorus electricus) (Electrophorus electricus, UniProt O42275). As to the kind of experiment: Acetylcholinesterase inhibition (Ellman's method). Format: biochemical. As to conditions: 10 μM compound; read-out: % Inhibition of EeAChE at 10 μM. The procedure:
Ellman’s method was employed to determine the inhibitory capacity of the compounds against AChE (Electrophorus electricus). The compounds were studied at 10 μM concentration, at room temperature, using PBS (0.1 M, pH 8) as solvent. Transparent 48-well microplates (COSTAR 3548) were used and, in each one, a blank was included. The compounds were incubated with the enzyme (0.09 U/mL) and with DTNB (0.35 mM) for 10 min. Afterwards, the enzyme substrate acetylthiocholine (0.35 mM) was added to a final volume of 1 mL. The microplate was incubated at room temperature for 15 min. Then, the absorbance was measured at 420 nm using the microplate reader FluoStar Optima (BMG Labtech, Ortenberg, Baden-Württemberg, Germany). The enzymatic activity was calculated by subtracting the blank absorbance from the sample absorbance and dividing the result by the absorbance of the maximum activity subtracted from blank absorbance, and the result was multiplied by one hundred to give a percentage. The inhibitory activity was calculated by subtracting the enzymatic activity from one hundred. Selected compounds were assayed at 0.3, 1, 3, 10, and 30 μM concentrations to obtain inhibition curves. The results were plotted versus concentration to obtain IC50 values through sigmoidal non-lineal adjustment. All the experiments were performed at least in triplicate.
Bisavenanthramide B-6 and heliotropamide A have been identified as acetylcholinesterase inhibitors. This precedent, coupled with our interest in the potential characterization of our compounds as multitarget-directed ligands, led us to investigate them as inhibitors of this enzyme, an important anti-Alzheimer target.
(In general: In Ellman's method for cholinesterases, released thiocholine reacts with DTNB.)

The values that follow come from paper PMC8230565, “Bisavenathramide Analogues as Nrf2 Inductors and Neuroprotectors in In Vitro Models of Oxidative Stress and Hyperphosphorylation” (Antioxidants, 2021).

AChE (Electrophorus electricus), sequence (O42275 24-633): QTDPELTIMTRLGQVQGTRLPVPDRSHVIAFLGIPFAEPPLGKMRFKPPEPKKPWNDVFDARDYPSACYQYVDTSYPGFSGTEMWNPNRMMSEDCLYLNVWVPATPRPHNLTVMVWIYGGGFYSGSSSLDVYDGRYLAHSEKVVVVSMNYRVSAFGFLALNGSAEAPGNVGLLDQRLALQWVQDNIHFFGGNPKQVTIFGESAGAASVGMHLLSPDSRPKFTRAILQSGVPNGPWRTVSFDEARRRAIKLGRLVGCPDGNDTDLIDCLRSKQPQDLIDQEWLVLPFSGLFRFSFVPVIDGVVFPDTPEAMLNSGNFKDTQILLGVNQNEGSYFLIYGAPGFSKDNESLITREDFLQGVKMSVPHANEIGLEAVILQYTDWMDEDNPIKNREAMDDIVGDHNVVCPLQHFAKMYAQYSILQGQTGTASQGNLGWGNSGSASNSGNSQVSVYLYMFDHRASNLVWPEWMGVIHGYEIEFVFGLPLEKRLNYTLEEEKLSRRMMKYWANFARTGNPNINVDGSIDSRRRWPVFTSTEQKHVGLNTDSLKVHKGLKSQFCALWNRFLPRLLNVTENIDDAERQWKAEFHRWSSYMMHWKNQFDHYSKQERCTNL

As a reminder, the inhibition is the share of the control response that was lost under treatment. Turning to `COC(=O)C1=C(C)N(CCc2ccccc2)C(=O)/C1=C\c1ccc(OCc2ccccc2F)c(OC)c1` [Compound 3j, Methyl (Z)-4-[4-((2-Fluorobenzyl)oxy)-3-methoxybenzylidene]-2-methyl-5-oxo-1-phenethyl-4,5-dihydro-1H-pyrrole-3-carboxylate], in data set [1] (30 µM compound, n in brackets), the “FRAP nmol Fe2+ at 30 µM” value is recorded as 1.60 ± 0.04 (3) nmol Fe^2+. In data set [1], the “FRAP TEAC” value amounted to 0.70. Moreover, in data set [2], the LD50 is greater than 100 µM. Further, the inhibition at 10 µM in data set [3] was 16%.
As for `COC(=O)C1=C(C)N(Cc2ccccc2)C(=O)/C1=C\c1ccccc1` [Compound 3a, Methyl (Z)-1-Benzyl-4-benzylidene-2-methyl-5-oxo-4,5-dihydro-1H-pyrrole-3-carboxylate], in data set [1], the “FRAP TEAC” value was found to be 0.62. For the same molecule, in data set [2], the “toxicity assessment” value is reported as “too toxic” and the LD50 was determined as 63.7 ± 12.8 µM. Also, in data set [3], the inhibition at 10 µM turned out to be 27.4%.
